Data on eight compounds can be found in DBAASP.

As a reminder, the MIC is the lowest concentration found to suppress growth. A lower MIC goes with a more susceptible organism.

Test systems include Enterobacter cloacae; Pseudomonas aeruginosa; Klebsiella aerogenes; Escherichia coli 1; Staphylococcus aureus; Escherichia coli; Escherichia coli ML-35p; Serratia marcescens; Proteus mirabilis; Candida albicans; Saccharomyces cerevisiae; Shigella dysenteriae; Salmonella typhimurium; Micrococcus luteus; Bacillus subtilis; Bacillus megaterium; Escherichia coli ML-35; Escherichia coli HB101.

Common to all, as to assay: ≥ marks a high value that may be exact or a test limit, other limits are often not marked, values filed in µg/mL are converted to µM
In experiment [1] the test system is Pseudomonas aeruginosa PAO1.
Experiment [2] deals with Escherichia coli ATCC 25922.
Experiment [3] relates to Pseudomonas aeruginosa ATCC 27853.
Experiment [4] relates to Staphylococcus aureus ATCC 25923.
Experiment [5] deals with Staphylococcus epidermidis.
Experiment [6] deals with Salmonella enterica subsp. enterica serovar Typhimurium ATCC 14028.
The subject of experiment [7] is Staphylococcus aureus ATCC 9144.
Experiment [8] deals with Corynebacterium glutamicum ATCC 13032.
Experiment [9] concerns Cryptococcus gattii ATCC 32608.
Experiment [10] has as its system Staphylococcus epidermidis ATCC 12228.
Experiment [11] concerns Cryptococcus neoformans ATCC 24067.
Experiment [12] relates to Candida krusei ATCC 20029.
For experiment [13], the system named is Acinetobacter baumannii ATCC 19606.
Experiment [14] has as its system Staphylococcus aureus ATCC 33591.
For experiment [15], the system named is Candida albicans ATCC 64550.
Experiment [16] concerns Staphylococcus aureus ATCC 6538.
The subject of experiment [17] is Escherichia coli ATCC 8739.
The test system of experiment [18] is Pseudomonas aeruginosa ATCC 9027.

SMILES strings stand for the structures. In brackets after ≈: the same amount, converted by molar mass. Several values for one entry are separate records, joined by “and”; a condition that tells them apart may be missing. Equal values may be shown once.

Consider `CC(C)C[C@H](NC(=O)[C@H](CCCCN)NC(=O)[C@H](CCCCN)NC(=O)[C@H](Cc1ccccc1)NC(=O)[C@H](Cc1ccccc1)NC(=O)[C@H](CCCCN)NC(=O)[C@H](CCCCN)NC(=O)[C@@H](N)Cc1ccccc1)C(=O)N[C@@H](CCCCN)C(=O)N[C@@H](CC(N)=O)C(=O)N[C@@H](CO)C(=O)N[C@H](C(=O)N[C@@H](CCCCN)C(=O)N[C@@H](CCCCN)C(=O)N[C@@H](CCCN=C(N)N)C(=O)O)C(C)C` [FKKFFKKLKNSVKKR], for which the minimal inhibitory concentration (MIC) in experiment [1] amounted to 3.63 µM (≈ 7 µg/mL); against Enterobacter cloacae, 4.15 µM (≈ 8 µg/mL); in [2], 6.75 µM (≈ 13 µg/mL); in the experiment on Pseudomonas aeruginosa it was 3.63 µM (≈ 7 µg/mL); against Klebsiella aerogenes it was 8.82 µM (≈ 17 µg/mL); against Escherichia coli 1 it was 2.6 µM (≈ 5 µg/mL). In addition, the MIC was found to be 3.63 µM (≈ 7 µg/mL) in the experiment with Staphylococcus aureus; 4.15 µM (≈ 8 µg/mL) in experiment [3]; 6.23 µM (≈ 12 µg/mL) in the experiment on Escherichia coli; 2.6 µM (≈ 5 µg/mL) in the experiment with Escherichia coli ML-35p; 21.3 µM (≈ 41 µg/mL) in experiment [4].
Regarding `CC[C@H](C)[C@H](NC(=O)CN)C(=O)N[C@@H](CC(C)C)C(=O)N[C@@H](CC(=O)O)C(=O)N[C@H](C(=O)N[C@@H](CC(C)C)C(=O)N[C@@H](CCCCN)C(=O)N[C@@H](CCC(N)=O)C(=O)N[C@@H](Cc1ccccc1)C(=O)N[C@@H](C)C(=O)N[C@@H](CCCCN)C(=O)NCC(=O)N[C@H](C(=O)NCC(=O)N[C@@H](CCCCN)C(=O)N[C@@H](CC(=O)O)C(=O)N[C@@H](CC(C)C)C(=O)N[C@H](C(=O)N[C@@H](CCCCN)C(=O)NCC(=O)N[C@@H](C)C(=O)N[C@@H](C)C(=O)N[C@@H](CCC(N)=O)C(=O)NCC(=O)O)C(C)C)C(C)C)[C@@H](C)O` [GILDTLKQFAKGVGKDLVKGAAQG], the MIC with Serratia marcescens was no less than 41.4 µM; with Proteus mirabilis it was 20.7 µM (≈ 50 µg/mL); in the experiment on Pseudomonas aeruginosa, 20.7 µM (≈ 50 µg/mL); against Candida albicans it was greater than 41.4 µM; against Escherichia coli, 20.7 µM (≈ 50 µg/mL); in experiment [5], 31.1 µM (≈ 75 µg/mL). For the same compound, the MIC in the experiment on Saccharomyces cerevisiae is 20.7 µM (≈ 50 µg/mL); against Shigella dysenteriae, 20.7 µM (≈ 50 µg/mL); in the experiment on Salmonella typhimurium, no less than 41.4 µM; against Micrococcus luteus, 2.07 µM (≈ 5 µg/mL); in the experiment with Bacillus subtilis, no less than 41.4 µM.
`CC[C@H](C)[C@H](NC(=O)[C@H](CCCCN)NC(=O)[C@H](CCCCN)NC(=O)[C@H](CC(C)C)NC(=O)[C@H](CCCCN)NC(=O)[C@H](CCC(=O)O)NC(=O)[C@H](CCCCN)NC(=O)[C@@H](NC(=O)[C@H](CCCCN)NC(=O)[C@H](CC(N)=O)NC(=O)[C@H](CCCN=C(N)N)NC(=O)[C@H](C)NC(=O)[C@H](CCCCN)NC(=O)[C@H](CCCN=C(N)N)NC(=O)[C@H](CC(C)C)NC(=O)[C@H](CCCN=C(N)N)NC(=O)[C@H](CCCCN)NC(=O)[C@H](CCCN=C(N)N)NC(=O)[C@H](CC(C)C)NC(=O)CN)[C@@H](C)CC)C(=O)O` [GLRKRLRKARNKIKEKLKKI]: the MIC amounted to 4 µM (≈ 9.91 µg/mL) in experiment [2]; 8 µM (≈ 19.8 µg/mL) against Bacillus megaterium; 16 µM (≈ 39.6 µg/mL) in experiment [6]; 4 µM (≈ 9.91 µg/mL) against Escherichia coli ML-35; 1 µM (≈ 2.48 µg/mL) in experiment [3]; 8 µM (≈ 19.8 µg/mL) in experiment [4].
For the compound `CC(C)[C@H](NC(=O)[C@H](CCCCN)NC(=O)[C@H](C)NC(=O)[C@@H](NC(=O)[C@@H](NC(=O)[C@H](CCCN=C(N)N)NC(=O)[C@H](CCCN=C(N)N)NC(=O)[C@H](Cc1c[nH]c2ccccc12)NC(=O)[C@H](Cc1c[nH]c2ccccc12)NC(=O)CN)[C@@H](C)O)C(C)C)C(=O)N[C@@H](CCCN=C(N)N)C(=O)N[C@@H](CC(N)=O)C(=O)N[C@@H](C)C(=O)NCC(=O)N[C@@H](CCCN=C(N)N)C(=O)N[C@@H](CCCCN)C(N)=O` [GWWRRTVAKVRNAGRK], the MIC in experiment [7] was determined as 12.5 µM (≈ 24.3 µg/mL); in experiment [2], 3.1 µM (≈ 6.01 µg/mL); in experiment [3], 3.1 µM (≈ 6.01 µg/mL); in [8] it was 0.8 µM (≈ 1.55 µg/mL).
As to `CC[C@H](C)[C@H](N)C(=O)N[C@@H](Cc1c[nH]c2ccccc12)C(=O)N[C@@H](CC(C)C)C(=O)N[C@H](C(=O)N[C@@H](C)C(=O)N[C@@H](CC(C)C)C(=O)N[C@@H](CCCCN)C(=O)N[C@@H](Cc1ccccc1)C(=O)N[C@@H](CC(C)C)C(=O)NCC(=O)N[C@@H](CCCCN)C(=O)N[C@@H](CC(N)=O)C(=O)N[C@@H](CC(C)C)C(=O)NCC(=O)N[C@@H](CCCCN)C(N)=O)[C@@H](C)O` [IWLTALKFLGKNLGK], the MIC is 3.73 µM (≈ 6.35 µg/mL) in experiment [9]; 4.18 µM (≈ 7.11 µg/mL) in [10]; 14.9 µM (≈ 25.4 µg/mL) in experiment [2]; 14.9 µM (≈ 25.4 µg/mL) in [11]; no less than 37.6 µM in [12]; 37.6 µM (≈ 64 µg/mL) in experiment [3]. For the same compound, the values for the minimal inhibitory concentration (MIC) in experiment [13] and in experiment [14] were 5.27 µM (≈ 8.97 µg/mL) and 4.7 µM (≈ 8 µg/mL), respectively.
In the case of `NC(N)=NCCC[C@H](NC(=O)[C@@H](N)CO)C(=O)N[C@@H](Cc1c[nH]c2ccccc12)C(=O)N1CCC[C@H]1C(=O)N[C@@H](CO)C(=O)N1CCC[C@H]1C(=O)NCC(=O)N[C@@H](CCCN=C(N)N)C(=O)N1CCC[C@H]1C(=O)N[C@@H](CCCN=C(N)N)C(=O)N1CCC[C@H]1C(=O)N[C@@H](Cc1ccccc1)C(=O)N1CCC[C@H]1C(=O)NCC(=O)O` [SRWPSPGRPRPFPG], the minimum inhibitory concentration (MIC) is no less than 100 µM in experiment [7]; greater than 100 µM in experiment [2]; no less than 100 µM with Escherichia coli HB101; greater than 100 µM in [3]; no less than 100 µM in [8].
For the compound `NCCCC[C@H](NC(=O)[C@H](Cc1c[nH]c2ccccc12)NC(=O)[C@H](Cc1ccccc1)NC(=O)[C@@H](N)Cc1c[nH]c2ccccc12)C(=O)N[C@@H](Cc1c[nH]c2ccccc12)C(=O)N[C@@H](Cc1c[nH]c2ccccc12)C(=O)N[C@@H](CCCN=C(N)N)C(=O)N[C@@H](CCCN=C(N)N)C(=O)N[C@@H](CCCN=C(N)N)C(=O)N[C@@H](CCCN=C(N)N)C(=O)N[C@@H](CCCN=C(N)N)C(N)=O` [WFWKWWRRRRR], the MIC is no less than 100 µM in [15], 1.7 µM (≈ 3.09 µg/mL) in experiment [16], 3.1 µM (≈ 5.64 µg/mL) in experiment [17] and 4.6 µM (≈ 8.36 µg/mL) in [18].
Turning to `C[C@H](NC(=O)[C@H](Cc1c[nH]c2ccccc12)NC(=O)[C@H](CCCN=C(N)N)NC(=O)[C@@H](N)Cc1ccc(O)cc1)C(=O)N[C@@H](CCCN=C(N)N)C(=O)N[C@@H](Cc1c[nH]c2ccccc12)C(=O)N[C@@H](Cc1c[nH]c2ccccc12)C(=O)N[C@@H](CCCN=C(N)N)C(=O)N[C@@H](CCCN=C(N)N)C(N)=O` [YRWARWWRR], the minimal inhibitory concentration (MIC) is 6.97 µM and 5.22 µM in experiment [2]; 3.48 µM (≈ 5 µg/mL) in experiment [3]; no less than 100 µM in experiment [15]; 3.48 µM (≈ 5 µg/mL) in experiment [4].
